# Experimental data taken from BindingDB's records for doi:10.1021/jm00107a033 (Virginia Commonwealth University, 1991).
# Experiment: Binding affinity towards sigma receptor in guinea pig cerebral homogenate using [3H]DTG as radioligand
row,SMILES,Ki [nM]
1,C[C@H](Cc1ccccc1)NCc1ccccc1 [N-Benzylamphetamine (Bam)],117
2,C[C@H](Cc1ccccc1)NCCOc1ccccc1,45
3,C[C@@H](Cc1ccccc1)NCCCCc1ccccc1 [((S)-1-Methyl-2-phenyl-ethyl)-(4-phenyl-butyl)-amine],6.6
4,C[C@@H](Cc1ccccc1)NCCc1ccccc1 [((S)-1-Methyl-2-phenyl-ethyl)-phenethyl-amine],31
5,C[C@@H](N)Cc1ccccc1 [(R)-amphetamine],46400
6,CCN[C@H](C)Cc1ccccc1 [Adiparthrol],660
7,C[C@@H](Cc1ccccc1)NCCCCCc1ccccc1 [((S)-1-Methyl-2-phenyl-ethyl)-(5-phenyl-pentyl)-amine],6.3
8,C[C@H](Cc1ccccc1)NCCC(=O)c1ccccc1,56
9,"C=CCN1CCC2(C)c3cc(O)ccc3CC1C2C (stereo not drawn) [3-Allyl-8-hydroxy-6,11-dimethyl-1,2,3,4,5,6-hexahydro-2,6-methano-benzo[d]azocinium]",429
10,CC(Cc1ccccc1)NCCCCc1ccccc1 (stereo not drawn),9.3
11,C[C@@H](Cc1ccccc1)N(C)CCCCCc1ccccc1,2.6

# Experiment: Binding affinity towards sigma opioid receptor in guinea pig cerebral homogenate using [3H]DTG as radioligand
row,SMILES,Ki [nM]
1,C[C@H](Cc1ccccc1)NCCc1ccccc1 [((R)-1-Methyl-2-phenyl-ethyl)-phenethyl-amine],60

# Experiment: Binding affinity towards sigma opioid receptor was determined in guinea pig cerebral homogenate using [3H]haloperidol as radioligand
row,SMILES,Ki [nM]
1,C[C@H](Cc1ccccc1)NCCc1ccccc1 [((R)-1-Methyl-2-phenyl-ethyl)-phenethyl-amine],61
